Laboratory results as given in US20230233425A1, “USE OF VOLATILE COMPOSITIONS TO LIMIT OR ELIMINATE THE PERCEPTION OF MALODOR” (Firmenich SA, priority 2017, published 2023).
Where a name gives a salt, the structure may show the parent alone. Read-outs that look alike come from different tables or passages of the source.

How the values were obtained:
[1] = molecular target: T1, OR51E1 olfactory receptor (Homo sapiens, UniProt Q8TCB6); assay: Butyric acid olfactory receptor antagonist cell-based dose-response vs butyric acid EC80; conditions: for Emax: read-out: Inhibition (%)
T1 construct: expressed in transfected cells
T1 sequence (Q8TCB6 1-318): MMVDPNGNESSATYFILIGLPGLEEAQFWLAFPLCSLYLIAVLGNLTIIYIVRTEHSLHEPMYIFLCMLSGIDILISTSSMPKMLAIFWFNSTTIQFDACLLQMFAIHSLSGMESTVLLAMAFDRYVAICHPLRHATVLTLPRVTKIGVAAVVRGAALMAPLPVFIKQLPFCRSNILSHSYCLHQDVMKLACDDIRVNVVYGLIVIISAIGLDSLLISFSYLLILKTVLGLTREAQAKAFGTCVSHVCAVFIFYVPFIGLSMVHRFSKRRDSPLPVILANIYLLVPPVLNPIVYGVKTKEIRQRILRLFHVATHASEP

[2] = system: geonol receptors Olfr339, Olfr1487, Olfr1A1, OR11A1, Olfr96; assay: Antagonists of geonol receptors (Example 11); type: cell-based, mouse and human; design: Inhibition(%): concentration or dose not given beside the values; conditions: Table 18

Compound | IC50 ([1]; Table 20, spiro analogues) [µM] | Emax ([1]; Table 20, spiro analogues) [%] | other results
CC(=O)OC(C)C1CC(C)C23CCC(CC12)C3 (stereo not shown) | – | – | IC50 ([1]; Table 21): 97 µM; Inhibition(%) ([1]; Table 21): 23%
CC(=O)OC(C)C1(C)CC(C)C23CCC(CC12)C3 (stereo not shown) | – | – | IC50 ([1]; Table 21): 54.8 µM; Inhibition(%) ([1]; Table 21): 34%
CC(=O)C1(C)CC(C)C23CCC(CC12)C3 (stereo not shown) | – | – | IC50 ([1]; Table 21): 60.5 µM; Inhibition(%) ([1]; Table 21): 26%
CC(=O)[C@@]1(C)C(C)[C@H](C)[C@@]23CC[C@H](CC12)C3 (stereo partly shown) | – | – | Inhibition(%) ([1]; Table 21): 27%
CC1C(C)C23CCC(CC2C1(C)C=O)C3 (stereo not shown) | – | – | IC50 ([1]; Table 21): 270 µM; Inhibition(%) ([1]; Table 21): 28%
CC1=CCC(C=CC(C)C(C)O)C1(C)C (stereo not shown) | – | – | IC50 [2]: 76 µM; Inhibition(%) [2]: 33%
CC1=CCC2C(C1)C1CC2C2(C1)OC2C (stereo not shown) | – | – | IC50 [2]: 281 µM; Inhibition(%) [2]: 45%
CC1(CO)CC1CC1CC2CC2(C)C1(C)C (stereo not shown) | – | – | IC50 [2]: 21.3 µM; Inhibition(%) [2]: 34%
CC(=O)OCC1(C)C(C)C(C)C23CCC(CC12)C3 (stereo not shown) | – | – | IC50 ([1]; Table 21): 60.8 µM; Inhibition(%) ([1]; Table 21): 27%
CCC1=CCCC(C)(C)[C@@]12C=C[C@@H](C)O2 | – | – | IC50 [2]: 127 µM; Inhibition(%) [2]: 47%
C[C@H]1CCC[C@]2(CCCC[C@@H]2C)[C@@H]1O | 76.9 | 54 | –
CC1CCC2(O1)C(C)(C)CCCC2(C)O (stereo not shown) | – | – | IC50 [2]: 173 µM; Inhibition(%) [2]: 40%
CC(=O)/C(C)=C/C1C(C)=CCCC1(C)C (stereo not shown) | – | – | IC50 [2]: 1120 µM; Inhibition(%) [2]: 58%
CC(=O)OC1CC2CCC1(C)C2(C)C (stereo not shown) | – | – | IC50 [2]: 660 µM; Inhibition(%) [2]: 84%
CC(=NO)C1(C)C(C)C(C)[C@]23CC[C@H](CC12)C3 (stereo partly shown) | – | – | Inhibition(%) ([1]; Table 21): 81%
CC(=NO)C1C(C)C(C)C23CCC(CC12)C3 (stereo not shown) | – | – | IC50 ([1]; Table 21): 76.6 µM; Emax ([1]; Table 21): 19%
CC1CC(C)(C=NO)C2C[C@H]3CC[C@]12C3 (stereo partly shown) | – | – | Inhibition(%) ([1]; Table 21): 38%
2,4,8-trimethylspiro[5.5]undec-3-en-11-ol; 2,9,11-trimethylspiro[5.5]undec-9-en-5-ol | 117 | – | Inhibition(%) ([1]; Table 20, spiro analogues): 70%
3,10,10-trimethylspiro[5.5]undec-3-en-11-ol; 4,10,10-trimethylspiro[5.5]undec-3-en-11-ol | > 600 | – | Inhibition(%) ([1]; Table 20, spiro analogues): 121%
4,10,10,11-tetramethylspiro[5.5]undec-2-en-11-ol; 5,10,10,11-tetramethylspiro[5.5]undec-3-en-11-ol | 47.2 | – | Inhibition(%) ([1]; Table 20, spiro analogues): 94%
CC(=O)OC(C1CCCCC1C)C(C)(C)C (racemic) [(1RS)-2,2-dimethyl-1-[(1SR,2SR)-2-methylcyclohexyl]propyl acetate] | – | – | Inhibition(%) ([1]; Table 20, spiro analogues): 86%

Compound | IC50 ([1]; Table 20, spiro analogues) [µM] | Emax ([1]; Table 20, spiro analogues) [%] | other results
C=C1C(C)(C)CCCC12CC1(C)OC1(C)C2 (stereo not shown) [1,1′,1′,5-tetramethyl-2′-methylidenespiro[6-oxabicyclo[3.1.0]hexane-3,3′-cyclohexane]] | 75.7 | 37 | –
CC=CC(=O)C1=C(C)C=CCC1(C)C [1-(2,6,6-trimethylcyclohexa-1,3-dien-1-yl)but-2-en-1-one] | – | – | IC50 [2]: 129 µM; Inhibition(%) [2]: 35%
CC1C=CCC(C)C1C(O)C(C)(C)C (stereo not shown) [1-(2,6-dimethylcyclohex-3-en-1-yl)-2,2-dimethylpropan-1-ol] | 321 | 31 | –
C=CCC1(OC)C(C)CCCC1C (stereo not shown) [1-methoxy-2,6-dimethyl-1-prop-2-enylcyclohexane] | 100 | 61 | –
C=C1C2CCC(C2)C1(C)C (stereo not shown) [2,2-dimethyl-3-methylidenebicyclo[2.2.1]heptane] | – | – | IC50 [2]: 219 µM; Inhibition(%) [2]: 36%
C=C(C)CC1(CC(=C)C)CCC(C)(C)C1O (stereo not shown) [2,2-dimethyl-5,5-bis(2-methylprop-2-enyl)cyclopentan-1-ol] | 35.1 | 119 | –
C=C(C)CC1(CC(=C)C)CCC(C)(C)C1=O [2,2-dimethyl-5,5-bis(2-methylprop-2-enyl)cyclopentan-1-one] | 51.7 | 82 | –
C=C(C)CC1(CC(=C)C)CCCC(C)(C)C1O (stereo not shown) [2,2-dimethyl-6,6-bis(2-methylprop-2-enyl)cyclohexan-1-ol] | 125 | 110 | –
CC1=C(C)CC2(CCC(C)(C)C2=O)C1 [2,3,8,8-tetramethylspiro[4.4]non-2-en-9-one] | 198 | 10 | –
CC1CC2(CCCC(C)(C)C2O)CC1C (stereo not shown) [2,3,9,9-tetramethylspiro[4.5]decan-10-ol] | 120 | 12 | –
CC1=CC(C)C2(CCCC(C)(C)C2O)C1 (stereo not shown) [2,4,9,9-tetramethylspiro[4.5]dec-2-en-10-ol] | 81.6 | 22 | –
CC1=CC(C)C2(CCCC(C)(C)C2=O)C1 (stereo not shown) [2,4,9,9-tetramethylspiro[4.5]dec-2-en-10-one] | 110 | 63 | –
CCCOC(C)OCCc1ccccc1 (stereo not shown) [2-(1-propoxyethoxy)ethylbenzene] | – | – | IC50 [2]: 190 µM; Inhibition(%) [2]: 61%
CC(C)CCOCCc1ccccc1 [2-(3-methylbutoxy)ethylbenzene] | – | – | IC50 [2]: 126 µM; Inhibition(%) [2]: 22%
C=CCC1(C(C)C=C)CCCC(C)(C)C1=O (stereo not shown) [2-but-3-en-2-yl-6,6-dimethyl-2-prop-2-enylcyclohexan-1-one] | 76.4 | 115 | –
CCC(=CCC1CC=C(C)C1(C)C)CO (stereo not shown) [2-ethyl-4-(2,2,3-trimethylcyclopent-3-en-1-yl)but-2-en-1-ol] | – | – | IC50 [2]: 173 µM; Inhibition(%) [2]: 35%
CCC(=CCC1CC=C(C)C1(C)C)CO (stereo not shown) [2-ethyl-4-[1~{S})-2,2,3-trimethylcyclopent-3-en-1-yl]but-2-e] | – | – | IC50 [2]: 44.6 µM; Inhibition(%) [2]: 19%
CC(C)COC(=O)Cc1ccccc1 [2-methylpropyl 2-phenylacetate] | – | – | IC50 [2]: 141 µM; Inhibition(%) [2]: 45%
CC1C2CC(CC2C2CCCC(O)C2)C1(C)C (stereo not shown) [3-(5,5,6-trimethyl-2-bicyclo[2.2.1]heptanyl)cyclohexan-1-ol] | – | – | IC50 [2]: 100 µM; Inhibition(%) [2]: 29%
CC1=CCC2(CCCCC2O)C(C(C)C)C1 (stereo not shown) [3-methyl-5-propan-2-ylspiro[5.5]undec-2-en-11-ol] | 366 | 144 | –
CC1C=CCC12CCCC(C)(C)C2=O (stereo not shown) [4,9,9-trimethylspiro[4.5]dec-2-en-10-one] | 268 | 102 | –

Compound | IC50 ([1]; Table 20, spiro analogues) [µM] | Emax ([1]; Table 20, spiro analogues) [%] | other results
COC1C(C)(C)CCC12CCCC2 (stereo not shown) [4-methoxy-3,3-dimethylspiro[4.4]nonane] | 337 | 105 | –
CC1(C)CCCC2(CC=CC2)C1O (stereo not shown) [9,9-dimethylspiro[4.5]dec-2-en-10-ol] | 44.1 | 91 | –
CC1(C)CCCC2(CC=CC2)C1=O [9,9-dimethylspiro[4.5]dec-2-en-10-one] | 135 | 23 | –
COC1C(C)(C)CCC12CC=CC2 (stereo not shown) [9-methoxy-8,8-dimethylspiro[4.4]non-2-ene] | 238 | 100 | –
COC1C(C)(C)CCCC12CC=CC2 (stereo not shown) [10-methoxy-9,9-dimethylspiro[4.5]dec-2-ene] | 120 | 33 | –
CC1CCCCC12CCCCC2O (stereo not shown) [11-methylspiro[5.5]undecan-5-ol] | 68.8 | 52 | –
CC(=O)OC1C(C)(C)CCCC12CC(C)(C)C(C)(C)C2 (stereo not shown) [(2,2,3,3,9,9-hexamethylspiro[4.5]decan-10-yl) acetate] | 425 | 39 | –
CC1=C(C)CC2(CCCC(C)(C)C2OC=O)C1 (stereo not shown) [(2,3,9,9-tetramethylspiro[4.5]dec-2-en-10-yl) formate] | 25.9 | 69 | –
CC(=O)OC1C(C)(C)CCCC12CC(C)=CC2C (stereo not shown) [(2,4,9,9-tetramethylspiro[4.5]dec-2-en-10-yl) acetate] | 34.8 | 131 | –
C/C=C/C(=O)C1=C(C)CCCC1(C)C [(2E)-1-(2,6,6-trimethyl-1-cyclohexen-1-yl)-2-buten-1-one] | – | – | IC50 ([1]; butyric acid at EC80, Table 5): 184 µM
CC(=O)OC1C(C)(C)CCCC12CC=C(C)CC2C (stereo not shown) [(3,5,10,10-tetramethylspiro[5.5]undec-2-en-11-yl) acetate] | 71.4 | 104 | –
CC(=O)OC1C(C)(C)CCCC12CC=CC2C (stereo not shown) [(4,9,9-trimethylspiro[4.5]dec-2-en-10-yl) acetate] | 48.5 | 106 | –
CC1CC=CCC12CCCC(C)(C)C2OC=O (stereo not shown) [(5,10,10-trimethylspiro[5.5]undec-2-en-11-yl) formate] | 44.4 | 129 | –
CC(=O)OC1C(C)(C)CCC12CC=CC2 (stereo not shown) [(8,8-dimethylspiro[4.4]non-2-en-9-yl) acetate] | 488 | 107 | –
CC(=O)OC1C(C)(C)CCCC12CC=CC2 (stereo not shown) [(9,9-dimethylspiro[4.5]dec-2-en-10-yl) acetate] | 90.3 | 32 | –
CCOCOC1CCCCCCCCCCC1 [(ethoxymethoxy)cyclododecane] | – | – | IC50 ([1]; butyric acid at EC80, Table 5): 69.2 µM
C[C@@H]1CCCCCCCCCCCCC(=O)C1 [(−)-(3R)-3-methyl-1-cyclopentadecanone] | – | – | IC50 ([1]; butyric acid at EC80, Table 5): 27.3 µM
COC1CCCCCCCCCCC1 [Methoxycyclododecane] | – | – | IC50 ([1]; butyric acid at EC80, Table 5): 84.1 µM
CC(=O)OC(C1C(C)C=C(C)CC1C)C(C)(C)C (stereo not shown) [[2,2-dimethyl-1-(2,4,6-trimethylcyclohex-3-en-1-yl)propyl] acetate] | 52.6 | 89 | –
CC(=O)OC(C1C(C)CC(C)CC1C)C(C)(C)C (stereo not shown) [[2,2-dimethyl-1-(2,4,6-trimethylcyclohexyl)propyl] acetate] | 242 | 101 | –
methyl 1-(3-methylbut-2-enyl)cyclohex-2-ene-1-carboxylate, methyl 1-(3-methylbut-2-enyl)cyclohex-3-ene-1-carboxylate, or mixtures thereof | 577 | – | Inhibition(%) ([1]; Table 20, spiro analogues): 38%
